Experimental data as given in patent US11613527B2, “Enzyme inhibitors” (KalVista Pharmaceuticals Limited, priority 2019, dated 2023).
Values after ≈ are worked out from the molar mass of the structure shown.

Tests used:
[1] = Solubility after 24 hrs in Fasted State Simulated Intestinal Fluid (FaSSIF); type: physicochemical; conditions: 24 hrs at 37° C., nominal concentration 1 mg/mL (as free base); for solubility at 24 h: Fasted State Simulated Intestinal Fluid (FaSSIF), thermodynamic from solid
Description: Selected compounds were further screened for solubility in Fasted State Simulated Intestinal Fluid (FaSSIF).
Approximately 1 mg of test compound is accurately weighed into a 2 mL vial. Volumes of the FaSSIF solution (pre-heated to 37° C.) were added to a vial to give a nominal concentration of 1 mg/mL (as free base). The FaSSIF solution was prepared on the day of use. The samples were vortexed before being placed in a Titramax 1000 shaker for 24 hrs at 37° C. and approximately 500 rpm. The samples were transferred to eppendorf tubes and centrifuged at 15,000 g (r.c.f.) for 10 min at 37° C. and analysed for concentration of test compound by LCMS.

[2] = biological target: Human plasma kallikrein (Homo sapiens (Human), UniProt P03952); test: Determination of the IC50 for plasma kallikrein (fluorogenic substrate H-DPro-Phe-Arg-AFC); type: biochemical; conditions: class symbols A-D, read-out: IC50 (human PKal)
Human plasma kallikrein, sequence (P03952 391-638): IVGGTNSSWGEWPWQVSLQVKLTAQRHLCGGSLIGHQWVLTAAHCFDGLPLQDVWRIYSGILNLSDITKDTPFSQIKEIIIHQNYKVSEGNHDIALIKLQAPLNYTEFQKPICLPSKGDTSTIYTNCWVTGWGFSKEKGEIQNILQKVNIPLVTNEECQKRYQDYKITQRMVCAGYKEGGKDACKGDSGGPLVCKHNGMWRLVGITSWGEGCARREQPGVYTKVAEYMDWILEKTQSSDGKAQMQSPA
Human plasma kallikrein, sequence (P03952 20-390 partner): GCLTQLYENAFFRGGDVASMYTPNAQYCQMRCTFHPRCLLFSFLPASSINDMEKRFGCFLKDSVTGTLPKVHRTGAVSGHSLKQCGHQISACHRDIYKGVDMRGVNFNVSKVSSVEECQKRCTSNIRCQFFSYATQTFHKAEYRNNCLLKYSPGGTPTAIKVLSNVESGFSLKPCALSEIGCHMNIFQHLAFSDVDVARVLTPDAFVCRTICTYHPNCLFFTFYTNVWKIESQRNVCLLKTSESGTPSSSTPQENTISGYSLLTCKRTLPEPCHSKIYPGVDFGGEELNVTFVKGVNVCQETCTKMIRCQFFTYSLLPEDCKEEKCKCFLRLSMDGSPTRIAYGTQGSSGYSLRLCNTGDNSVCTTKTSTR
Procedure, shortened: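 Enzyme from a commercial source was incubated at 25° C. with H-DPro-Phe-Arg-AFC substrate and a range of test compound concentrations. Residual activity was taken as the initial reaction rate, followed by absorbance change at 410 nm, and IC50 values were derived from it.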

[3] = biological target: Human KLK1 (Homo sapiens (Human), UniProt P06870); test: Determination of the IC50 for KLK1 (fluorogenic substrate H-DVal-Leu-Arg-AFC); type: biochemical
Human KLK1, sequence (P06870 25-262): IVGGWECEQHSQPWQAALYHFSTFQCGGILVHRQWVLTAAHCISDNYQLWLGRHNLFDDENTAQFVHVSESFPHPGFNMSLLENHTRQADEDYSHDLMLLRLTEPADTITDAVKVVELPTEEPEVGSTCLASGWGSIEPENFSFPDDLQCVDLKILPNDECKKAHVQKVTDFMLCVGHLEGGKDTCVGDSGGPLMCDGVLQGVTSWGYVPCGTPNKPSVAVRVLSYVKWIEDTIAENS
Procedure, shortened: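 Human KLK1 incubated at 25° C. with fluorogenic substrate H-DVal-Leu-Arg-AFC and a range of test compound concentrations. Residual activity taken as initial reaction rate from absorbance change at 410 nm; IC50 derived from these rates.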

[4] = biological target: Human FXIa (Homo sapiens (Human), UniProt P03951); test: Determination of the % inhibition for FXIa (fluorogenic substrate Z-Gly-Pro-Arg-AFC; 40 μM or IC50); type: biochemical
Human FXIa, sequence (P03951 388-625): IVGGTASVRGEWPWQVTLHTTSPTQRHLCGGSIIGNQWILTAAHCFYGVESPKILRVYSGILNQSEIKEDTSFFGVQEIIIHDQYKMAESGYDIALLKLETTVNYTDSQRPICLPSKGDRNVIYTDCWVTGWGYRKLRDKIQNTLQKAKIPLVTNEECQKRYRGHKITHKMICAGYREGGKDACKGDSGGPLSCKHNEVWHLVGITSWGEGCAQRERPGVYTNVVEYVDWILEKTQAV
Human FXIa, sequence (P03951 19-387 partner): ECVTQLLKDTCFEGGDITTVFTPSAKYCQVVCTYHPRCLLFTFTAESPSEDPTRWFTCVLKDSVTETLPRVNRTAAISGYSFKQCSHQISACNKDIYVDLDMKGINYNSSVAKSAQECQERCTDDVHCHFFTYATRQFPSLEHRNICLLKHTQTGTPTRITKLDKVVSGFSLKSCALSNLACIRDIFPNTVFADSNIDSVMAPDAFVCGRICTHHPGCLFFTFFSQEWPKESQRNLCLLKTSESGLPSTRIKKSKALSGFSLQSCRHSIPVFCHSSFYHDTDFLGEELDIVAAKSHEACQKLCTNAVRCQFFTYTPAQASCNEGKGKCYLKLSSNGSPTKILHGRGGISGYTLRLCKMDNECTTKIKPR
Procedure, shortened: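 Human FXIa incubated at 25 °C with fluorogenic substrate Z-Gly-Pro-Arg-AFC and test compound at 40 μM for % inhibition, or a concentration series for IC50. Residual activity taken as initial rate from absorbance change at 410 nm.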

| Compound | solubility at 24 h [1] [mg/mL] | IC50 [2] [µM] | FASSIF Solubility 24 hrs [1] [mg/mL] | IC50 [3] [µM] | IC50 [4] [µM] |
| --- | --- | --- | --- | --- | --- |
| COCc1nn(Cc2cnc(N3CCCC3)nc2)cc1C(=O)NCc1c(-n2cc(C)nn2)ccc(OC)c1F [RC6, N-{[2-fluoro-3-methoxy-6-(4-methyl-1,2,3-triazol-1-yl)phenyl]methyl}-3-(methoxymethyl)-1-{[2-(pyrrolidin-1-yl)pyrimidin-5-yl]methyl}pyrazole-4-carboxamide, reference compound] | 0.1 (≈ 187 µM) | – | – | – | – |
| COCc1nn(Cc2ccc3ccncc3c2)cc1C(=O)NCc1c(-n2cc(C)nn2)ccc(OC)c1F [RC1, N-{[2-fluoro-3-methoxy-6-(4-methyl-1,2,3-triazol-1-yl)phenyl]methyl}-1-(isoquinolin-7-ylmethyl)-3-(methoxymethyl)pyrazole-4-carboxamide, reference compound] | 0.04 (≈ 77.6 µM) | 0.1 to 1 | – | – | – |
| [2H]C([2H])([2H])N1CCc2ccc(Cn3cc(C(=O)NCc4c(-n5cc(C)nn5)ccc(OC)c4F)c(COC)n3)cc2C1 [Example 119, N-{[2-fluoro-3-methoxy-6-(4-methyl-1,2,3-triazol-1-yl)phenyl]methyl}-3-(methoxymethyl)-1-{[2-(^2H3)methyl-3,4-dihydro-1H-isoquinolin-7-yl]methyl}pyrazole-4-carboxamide] | – | – | 0.96 | – | – |
| COCc1nn(Cc2ccc3c(c2)CN(C(C)C)C3)cc1C(=O)NCc1c(-n2cnc(C(F)F)n2)ccc(OC)c1F [Example 59, N-({6-[3-(difluoromethyl)-1,2,4-triazol-1-yl]-2-fluoro-3-methoxyphenyl}methyl)-1-[(2-isopropyl-1,3-dihydroisoindol-5-yl)methyl]-3-(methoxymethyl)pyrazole-4-carboxamide] | – | < 0.01 | – | > 40 | > 40 |
| CCN1CCc2ccc(Cn3cc(C(=O)NCc4c(-n5cc(C)nn5)ccc(OC)c4F)c(COC)n3)cc2C1 [Example 16, 1-[(2-ethyl-3,4-dihydro-1H-isoquinolin-7-yl)methyl]-N-{[2-fluoro-3-methoxy-6-(4-methyl-1,2,3-triazol-1-yl)phenyl]methyl}-3-(methoxymethyl)pyrazole-4-carboxamide] | – | < 0.01 | – | > 40 | > 40 |
| COCc1nn(Cc2ccc3c(c2)CN(C2CCC2)CC3)cc1C(=O)NCc1c(-n2cc(C)nn2)ccc(OC)c1F [Example 18, 1-((2-cyclobutyl-1,2,3,4-tetrahydroisoquinolin-7-yl)methyl)-N-(2-fluoro-3-methoxy-6-(4-methyl-1H-1,2,3-triazol-1-yl)benzyl)-3-(methoxymethyl)-1H-pyrazole-4-carboxamide] | – | < 0.01 | – | > 40 | > 40 |
| COCc1nn(Cc2ccc3c(c2)CN(C(C)C)C3)cc1C(=O)NCc1c(-n2cnc(C(F)(F)F)n2)ccc(OC)c1F [Example 60, N-({2-fluoro-3-methoxy-6-[3-(trifluoromethyl)-1,2,4-triazol-1-yl]phenyl}methyl)-1-[(2-isopropyl-1,3-dihydroisoindol-5-yl)methyl]-3-(methoxymethyl)pyrazole-4-carboxamide] | – | < 0.01 | – | > 40 | > 40 |
| COCc1nn(Cc2cnc(N3CCCC3)nc2)cc1C(=O)NCc1c(-n2ccnn2)ccc(OC)c1F [RC5, N-{[2-fluoro-3-methoxy-6-(1,2,3-triazol-1-yl)phenyl]methyl}-3-(methoxymethyl)-1-{[2-(pyrrolidin-1-yl)pyrimidin-5-yl]methyl}pyrazole-4-carboxamide, reference compound] | 0.02 (≈ 38.3 µM) | – | – | – | – |
| COCc1nn(Cc2ccc3c(c2)CN(C)CC3)cc1C(=O)NCc1c(-n2cnc(C(F)F)n2)ccc(Cl)c1F [Example 155, N-({3-chloro-6-[3-(difluoromethyl)-1,2,4-triazol-1-yl]-2-fluorophenyl}methyl)-3-(methoxymethyl)-1-[(2-methyl-3,4-dihydro-1H-isoquinolin-7-yl)methyl]pyrazole-4-carboxamide] | – | 0.1 to 1 | – | > 40 | > 40 |
